Results from US5276043A, “Method for treatment of neurodegenerative diseases” (priority 1993, dated 1994).
Read-outs that look alike come from different tables or passages of the source.

Experiments:
[1] = tested on: synaptosomes from the striatal area of rat brain; assay: [3H]-dopamine release from rat striatal synaptosomes; format: cell-based, Sprague-Dawley rats; conditions: read-out: Dopamine Release (percent release relative to (S)-(-)-nicotine)
Experimental: Dopamine release was measured by preparing synaptosomes from the striatal area of rat brain obtained from Sprague-Dawley rats generally according to the procedures set forth by Nagy, et al., J. Neurochem., Vol. 43, pp. 1114-1123 (1984). Striata from 4 rats were homogenized in 2 ml of 0.32M sucrose buffered with 5 mM HEPES (pH 7.5), using a glass-teflon tissue grinder. The homogenate was diluted to 5 ml with additional homogenization solution and centrifuged at 1000×g for 10 min. This procedure was repeated on the new pellet and the resulting supernatant was centrifuged at 12,000×g for 20 min. A 3 layer discontinuous Percoll gradient consisting of 16 percent, 10 percent and 7.5 percent Percoll in HEPES-buffered sucrose was made with the final pellet dispersed in the top layer. After centrifugation at 15,000×g for 20 min., the synaptosomes were recovered above the 16 percent layer with a pasteur pipette, diluted with 8 ml of perfusion buffer (128 mM NaCl, 2.4 mM KCl, 3.2 mM CaCl2, 1.2 mM KH2 PO4, 1.2 mM MgSO4, 25 mM HEPES pH 7.4, 10 mM dextrose, 1 mM ascorbate, 0.01 mM pargyline), and centrifuged at 15,000×g for 20 min. The new pellet was collected and re-suspended in perfusion buffer. The synaptosome suspension was incubated for 10 min. at 37° C. Then [^3 H]-dopamine (Amersham, 40-60 Ci/mmol) was added to the suspension to give a final concentration of 0.1 μM in suspension, and the suspension was incubated for another 5 min. Using this method, 30 to 90 percent of the dopamine was taken up into the synaptosomes, as determined by scintillation counting following filtration through glass fiber filters soaked with 0.5 percent polyethyleneimine. A continuous perfusion system was used to monitor release following exposure to each ligand. The ligands are named in Table I. Synaptosomes were loaded onto glass fiber filters (Gelman type A/E). Perfusion buffer was dripped onto the filters (0.2-0.3 ml/min.) and pulled through the filters with a peristaltic pump. Synaptosomes were washed with perfusion buffer for a minimum of 20 min. before addition of the ligand. After the addition of a 0.2 ml of a 20 μM solution of ligand, the perfusate was collected into scintillation vials at 1 min. intervals and the dopamine released was quantified by scintillation counting. Peaks of radioactivity released above background were summed and the average basal release during that time was subtracted from the total. Release was expressed as a percentage of release obtained with an equal concentration of (S)-(-)-nicotine.

[2] = molecular target: high affinity nicotinic receptors; assay: Inhibition of L-[3H]nicotine binding to mouse brain membrane preparations; parameters: species or system Mice (DBA strain); conditions: mouse brain membranes, 10 nM L-[3H]nicotine, 2 hr at 4° C.; Ki calculated from IC50 by Cheng method; read-out: Ki (concentration of compound which inhibits 50 percent of L-[3H]nicotine binding)
Experimental: Mice (DBA strain) were maintained on a 12 hour light/dark cycle and were allowed free access to water and food supplied by Wayne Lab Blox, Madison, Wis. Animals used in the present studies were 60 to 90 days of age and weighed 20 to 25 g. Brain membrane preparations were obtained from pooled brain tissue of both males and females.
Mice were killed by cervical dislocation. Brains were removed and placed on an ice-cold platform. The cerebellum was removed and the remaining tissue was placed in 10 volumes (weight:volume) of ice-cold buffer (Krebs-RingersHEPES:NaCl, 118 mM; KCl, 4.8 mM; CaCl2, 2.5 mM; MgSO4, 1.2 mM; HEPES, 20 mM; pH to 7.5 with NaOH) and homogenized with a glass-Teflon tissue grinder. The resulting homogenate was centrifuged at 18000×g for 20 min. and the resulting pellet was resuspended in 20 volumes of water. After 60 min. incubation at 4° C., a new pellet was collected by centrifugation at 18000×g for 20 min. After resuspension in 10 volumes of buffer, a new final pellet was again collected by centrifugation at 18000×g for 20 min. Prior to each centrifugation step, the suspension was incubated at 37° C. for 5 min. to promote hydrolysis of endogenous acetylcholine. […] Protein was determined by the method of Lowry, et al., J. Biol. Chem., Vol. 193, pp. 265-275 (1951), using bovine serum albumin as the standard.
The binding of L-[^3 H]nicotine was measured using a modification of the method of Romano, et al., Science, Vol. 210, pp. 647-650 (1980) as described previously by Marks, et al., Mol. Pharmacol., Vol. 30, pp. 427-436 (1986). The binding of L-[^3 H]nicotine was measured using a 2 hr. incubation at 4° C. […] Nonspecific binding was determined by inclusion of 10 μM nonradioactive nicotine in the incubations. The inhibition of L-[^3 H]nicotine binding by test compounds was determined by including one of eight different concentrations of the test compound in the incubation. […] Inhibition constants (Ki values) were calculated from the IC50 values using the method of Cheng, et al., Biochem. Pharmacol., Vol. 22, pp. 3099-3108 (1973). […]

[3] = 0.2 ml of 20 μM ligand solution, relative to equal concentration of (S)-(-)-nicotine

SMILES: c1cncc(C2=NCCC2)c1 [myosmine]
- Emax at 20 µM [1, 3]: 10%
- Ki [2]: 3700 nM

SMILES: C1=CCC(c2cccnc2)NC1 (racemic) [anatabine]
- Emax at 20 µM [1, 3]: 70%
- Ki [2]: 240 nM

SMILES: CN1CCCCC1c1cccnc1 (stereo not shown) [methyl anabasine]
- Emax at 20 µM [1]: 5%
- Ki [2]: 450 nM

SMILES: Fc1cncc(C2=NCCCC2)c1 [5-fluoroanabaseine]
- Emax at 20 µM [1, 3]: 50%
